The values that follow come from patent publication US10703756B2, “Pyrrolo[2,3-D]pyrimidinyl, pyrrolo[2,3-B]pyrazinyl, pyrrolo[2,3-B]pyridinyl acrylamides and epoxides thereof” (Pfizer Inc., priority 2015, dated 2020).

Test [1] deals with T1, JAK3 enzyme (Homo sapiens, UniProt P52333).
T1 sequence (P52333 1-1124): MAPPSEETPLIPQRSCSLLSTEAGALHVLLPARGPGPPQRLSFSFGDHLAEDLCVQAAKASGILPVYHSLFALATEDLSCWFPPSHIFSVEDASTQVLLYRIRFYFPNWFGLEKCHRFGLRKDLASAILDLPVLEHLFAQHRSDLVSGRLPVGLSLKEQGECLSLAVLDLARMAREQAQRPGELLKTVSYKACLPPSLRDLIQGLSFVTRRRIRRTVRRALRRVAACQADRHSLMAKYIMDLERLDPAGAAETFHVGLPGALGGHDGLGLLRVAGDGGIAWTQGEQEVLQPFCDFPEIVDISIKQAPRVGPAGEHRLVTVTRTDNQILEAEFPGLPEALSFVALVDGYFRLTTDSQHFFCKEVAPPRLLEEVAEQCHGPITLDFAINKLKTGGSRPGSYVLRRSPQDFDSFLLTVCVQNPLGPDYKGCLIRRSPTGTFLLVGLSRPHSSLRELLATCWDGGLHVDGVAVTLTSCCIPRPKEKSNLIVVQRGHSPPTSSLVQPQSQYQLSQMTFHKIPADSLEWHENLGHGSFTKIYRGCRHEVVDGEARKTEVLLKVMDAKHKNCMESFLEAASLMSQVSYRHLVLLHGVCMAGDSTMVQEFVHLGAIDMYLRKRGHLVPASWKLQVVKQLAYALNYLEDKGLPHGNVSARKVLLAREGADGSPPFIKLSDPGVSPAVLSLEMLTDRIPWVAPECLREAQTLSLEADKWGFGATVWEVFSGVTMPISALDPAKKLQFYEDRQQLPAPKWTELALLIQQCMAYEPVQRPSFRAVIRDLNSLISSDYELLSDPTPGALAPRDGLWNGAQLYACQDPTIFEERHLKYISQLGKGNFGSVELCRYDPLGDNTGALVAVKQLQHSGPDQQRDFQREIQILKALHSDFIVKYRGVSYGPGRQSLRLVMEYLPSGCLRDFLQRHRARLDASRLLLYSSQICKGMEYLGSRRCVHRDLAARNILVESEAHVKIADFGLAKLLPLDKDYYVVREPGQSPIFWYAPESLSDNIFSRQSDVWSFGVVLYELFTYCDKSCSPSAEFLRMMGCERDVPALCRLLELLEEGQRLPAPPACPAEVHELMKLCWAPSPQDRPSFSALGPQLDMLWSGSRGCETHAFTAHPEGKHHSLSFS
Description: JAK Caliper Enzyme Assay at 4 μM ATP. It counts as biochemical. An outline of the steps:
(§1)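 Peptide phosphorylation by the kinase, adjusted to 20%-30% conversion, is measured by microfluidic separation of substrate and product on a Caliper LC3000. Compounds run as 11-point half-log series from a 600 μM DMSO top concentration.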

Test [2] has as its target T1, JAK3 enzyme. The test is described as follows: JAK Caliper Enzyme Assay at 1 mM ATP. It counts as biochemical. Put shortly: as §1

In general, IC50 refers to the concentration that gives 50% inhibition. Low values mean inhibition by little substance, high ones a need for much substance. For `C=CC(=O)N1C[C@H](Nc2cnc3[nH]cc(C(=O)NCCOC)c3n2)C[C@H]1COC` [Example 258, 2-{[(3R,5S)-1-acryloyl-5-(methoxymethyl)pyrrolidin-3-yl]amino}-N-(2-methoxyethyl)-5H-pyrrolo[2,3-b]pyrazine-7-carboxamide], the values for the 50% inhibitory concentration (IC50) in test [1] and in test [2] were 6.23 nM and 1050 nM, respectively.

With `C=CC(=O)N1CCC(Oc2cnc3[nH]cc([C@H](C)O)c3n2)CC1` (single isomer, unassigned) [Example 118], the 50% inhibitory concentration (IC50) was 16.1 nM in test [1] and 1890 nM in test [2].

For the compound `C=CC(=O)N1CCN(c2cnc3[nH]cc(C(=O)N[C@@H]4CCO[C@H]4C)c3n2)CC1(C)C` [Example 160, 3-({[2-(4-acryloyl-3,3-dimethylpiperazin-1-yl)-5H-pyrrolo[2,3-b]pyrazin-7-yl]carbonyl}amino)-2,5-anhydro-1,3,4-trideoxy-D-erythro-pentitol], the values for the 50% inhibitory concentration (IC50) in test [1] and in test [2] were 4.33 nM and 463 nM, respectively.

For the compound `C=CC(=O)N1CCN(c2cnc3[nH]cc(C(=O)N[C@H](CO)C(CC)CC)c3n2)CC1(C)C` [Example 137, 2-(4-acryloyl-3,3-dimethylpiperazin-1-yl)-N-[(2S)-3-ethyl-1-hydroxypentan-2-yl]-5H-pyrrolo[2,3-b]pyrazine-7-carboxamide], the IC50 in test [1] is 28.1 nM; in test [2], 3020 nM.

As for `C=CC(=O)N1CCC(Oc2cnc3[nH]cc(C(=O)NCC4CCC4)c3c2)CC1` [Example 345, 5-[(1-acryloylpiperidin-4-yl)oxy]-N-(cyclobutylmethyl)-1H-pyrrolo[2,3-b]pyridine-3-carboxamide], the IC50 in test [1] came to 43.7 nM; in test [2], 4030 nM.

Turning to `C=CC(=O)N1CCN(c2cnc3[nH]cc(C(=O)NC4COCc5ccccc54)c3n2)CC1(C)C` (racemic) [Example 144, Racemic-2-(4-acryloyl-3,3-dimethylpiperazin-1-yl)-N-(3,4-dihydro-1H-isochromen-4-yl)-5H-pyrrolo[2,3-b]pyrazine-7-carboxamide], the IC50 in test [1] is 3.32 nM; in test [2], 430 nM.

For the compound `C=CC(=O)N1CC[C@H](Nc2cnc3[nH]cc(C(=O)N[C@@H](C)COC)c3n2)[C@H](OC)C1` (single isomer, unassigned) [Example 356], the IC50 in test [1] turned out to be 4.07 nM; in test [2], 831 nM.

For `C=CC(=O)N1CCN(c2cnc3[nH]cc(C(=O)N[C@@H](C)COc4ccccc4)c3n2)CC1(C)C` [Example 147, 2-(4-acryloyl-3,3-dimethylpiperazin-1-yl)-N-[(2S)-1-phenoxypropan-2-yl] 5H-pyrrolo[2,3-b]pyrazine-7-carboxamide], the IC50 amounted to 41.7 nM in test [1] and 3710 nM in test [2].

Turning to `C=CC(=O)N1C[C@H](CO)C[C@H](Nc2ncnc3[nH]ccc23)C1` (single isomer, unassigned) [Example 99], the figures for the IC50 in test [1] and in test [2] were 89.2 nM and 8990 nM, respectively.

On to `C=CC(=O)N1CCN(c2cnc3[nH]cc(C(=O)N[C@@H]4COC[C@@H]4CC(C)C)c3n2)CC1(C)C` [Example 142, 2-(4-acryloyl-3,3-dimethylpiperazin-1-yl)-N-[(3S,4R)-4-(2-methylpropyl)tetrahydrofuran-3-yl]-5H-pyrrolo[2,3-b]pyrazine-7-carboxamide], for which the IC50 in test [1] turned out to be 60.4 nM; in test [2], 4430 nM.

Consider `C=CC(=O)N1C[C@H](CC)[C@H](Nc2cnc3[nH]cc(C(=O)NCC)c3n2)C1` [Example 241, 2-{[(3S,4S)-1-acryloyl-4-ethylpyrrolidin-3-yl]amino}-N-ethyl-5H-pyrrolo[2,3-b]pyrazine-7-carboxamide], for which the IC50 was determined as 3.79 nM in test [1] and 857 nM in test [2].

As for `C=CC(=O)N1C[C@@H](CC)[C@@H](Nc2cnc3[nH]cc(C(=O)NCCOC)c3n2)C1` [Example 257, 2-{[(3R,4R)-1-acryloyl-4-ethylpyrrolidin-3-yl]amino}-N-(2-methoxyethyl)-5H-pyrrolo[2,3-b]pyrazine-7-carboxamide], the IC50 in test [1] is 55.3 nM; in test [2] it was 6460 nM.

In the case of `C=CC(=O)N1CC(Nc2cnc3[nH]cc(C(=O)NCC(C)C)c3n2)C2(CC2)C1` (stereo not drawn) [Example 236, 2-[(5-acryloyl-5-azaspiro[2.4]hept-7-yl)amino]-N-(2-methylpropyl)-5H-pyrrolo[2,3-b]pyrazine-7-carboxamide], the 50% inhibitory concentration (IC50) is 45.1 nM in test [1] and 6550 nM in test [2].

In the case of `C=CC(=O)N1CCN(c2cnc3[nH]cc(C(=O)NCC(F)(F)F)c3n2)CC1(C)C` [Example 286, 2-(4-acryloyl-3,3-dimethylpiperazin-1-yl)-N-(2,2,2-trifluoroethyl)-5H-pyrrolo[2,3-b]pyrazine-7-carboxamide], the half-maximal inhibitory concentration (IC50) came to 12.4 nM in test [1] and 1020 nM in test [2].

As to `C#CCOCCc1c[nH]c2ncnc(N[C@@H]3CC[C@H](C)N(C(=O)C=C)C3)c12` [Example 131, 1-[(2S,5R)-2-Methyl-5-({5-[2-(prop-2-yn-1-yloxy)ethyl]-7H-pyrrolo[2,3-d]pyrimidin-4-yl}amino)piperidin-1-yl]prop-2-en-1-one], the concentration for half-maximal inhibition (IC50) in test [1] was 0.182 nM; in test [2], 33 nM.

For `C=CC(=O)N1C[C@H](Nc2cnc3[nH]cc(C(=O)NCCOC)c3n2)[C@@](C)(C#N)C1` [Example 232, 2-{[(3R,4S)-1-acryloyl-4-cyano-4-methylpyrrolidin-3-yl]amino}-N-(2-methoxyethyl)-5H-pyrrolo[2,3-b]pyrazine-7-carboxamide], the IC50 in test [1] was determined as 2.5 nM; in test [2], 606 nM.

`C=CC(=O)N1C[C@H](Nc2ncnc3[nH]ccc23)CC[C@@H]1CNC(C)=O` (single isomer, unassigned) [Example 89]: the IC50 came out at 76.4 nM in test [1] and 7670 nM in test [2].

For the compound `C=CC(=O)N1CCC(Oc2cnc3[nH]cc(C(=O)NCC4(O)CC[C@@H](C)C4)c3n2)CC1` (mixture of isomers) [Example 226], the values for the IC50 in test [1] and in test [2] were 2.12 nM and 430 nM, respectively.

As for `C=CC(=O)N1CCC(Nc2cnc3[nH]cc(S(=O)(=O)NC(C)C)c3n2)CC1` [Example 127, 2-[(1-Acryloylpiperidin-4-yl)amino]-N-(propan-2-yl)-5H-pyrrolo[2,3-b]pyrazine-7-sulfonamide], the IC50 in test [1] was determined as 9.43 nM; in test [2], 1080 nM.

On to `C=CC(=O)N1CCN(c2cnc3[nH]cc(C(=O)N[C@H](CO)CCC)c3n2)CC1(C)C` [Example 161, 2-(4-acryloyl-3,3-dimethylpiperazin-1-yl)-N-[(2S)-1-hydroxypentan-2-yl] 5H-pyrrolo[2,3-b]pyrazine-7-carboxamide], for which the IC50 was determined as 7.35 nM in test [1] and 1120 nM in test [2].

On to `C=CC(=O)N1CC(Nc2cnc3[nH]cc(C(=O)NCC)c3n2)C2(CC2)C1` (stereo not drawn) [Example 244, 2-[(5-acryloyl-5-azaspiro[2.4]hept-7-yl)amino]-N-ethyl-5H-pyrrolo[2,3-b]pyrazine-7-carboxamide], for which the IC50 is 82.3 nM in test [1] and above 10000 nM in test [2].
